According to US20250171428A1, “CRYSTALLINE FORMS OF 6-((5-METHYL-3-(6-METHYLPYRIDIN-3-YL)ISOXAZOL-4- YL)METHOXY)- N -(TETRAHYDRAPYRAN-4-YL)PYRIDAZINE-3-CARBOXAMIDE” (Hoffmann-La Roche Inc., priority 2022, published 2025):

Legend:
Assay type in all cases: physicochemical
[1] = Competing long-term slurry equilibration experiments including Form A and Form B; conditions: competing slurries of Form A and Form B, various solvents, 5° C. to 65° C.; all conditions tested
Procedure: The competing long-term slurry equilibration experiments including Form A and Form B were performed in various solvents in the temperature range from 5° C. to 65° C.

[2] = Slurry of Form 4 in various solvents and solvent/water mixtures; conditions: 20° C. to 60° C.
[3] = Transformation of Form 4 at elevated temperature; conditions: temperatures >110° C.

stability of the crystalline form [1] | solid form transformation in slurry [2] | solid form transformation on heating [3] | Compound
superior stability | – | – | Cc1ccc(-c2noc(C)c2COc2ccc(C(=O)NC3CCOCC3)nn2)cn1 [Form B, 6-((5-methyl-3-(6-methylpyridin-3-yl)isoxazol-4-yl)methoxy)-N-(tetrahydropyran-4-yl)pyridazine-3-carboxamide]
– | transform to Form B | transform to Form A | Cc1ccc(-c2noc(C)c2COc2ccc(C(=O)NC3CCOCC3)nn2)cn1 [Form 4, 6-((5-methyl-3-(6-methylpyridin-3-yl)isoxazol-4-yl)methoxy)-N-(tetrahydropyran-4-yl)pyridazine-3-carboxamide]
